Experimental data: ChEMBL document CHEMBL1155826, “Refinement of histamine H3 ligands pharmacophore model leads to a new class of potent and selective naphthalene inverse agonists” (Bioorg Med Chem Lett, 2008)
pEC50, pKi: −log10 of the molar value.

Key:
Histamine H3 receptor [1] = target: T1, Histamine H3 receptor (Homo sapiens, UniProt Q9Y5N1); assay: Displacement of [3H]RAMH from human histamine H3 receptor expressed in CHO cells at 3 uM; assay type: cell-based
Histamine H3 receptor [2] = target: T1, Histamine H3 receptor; assay: Displacement of [3H]RAMH from human histamine H3 receptor expressed in CHO cells; assay type: cell-based
Histamine H3 receptor [3] = target: T1, Histamine H3 receptor; assay: Inverse agonist activity at human histamine H3 receptor expressed in CHO cells by GTPgammaS assay; assay type: functional, cell-based
[4] = target: Histamine H1 receptor (Homo sapiens) (UniProt P35367); assay: Inhibition of histamine H1 receptor at 3 uM
Histamine H1 receptor (Homo sapiens), sequence (P35367 whole entry): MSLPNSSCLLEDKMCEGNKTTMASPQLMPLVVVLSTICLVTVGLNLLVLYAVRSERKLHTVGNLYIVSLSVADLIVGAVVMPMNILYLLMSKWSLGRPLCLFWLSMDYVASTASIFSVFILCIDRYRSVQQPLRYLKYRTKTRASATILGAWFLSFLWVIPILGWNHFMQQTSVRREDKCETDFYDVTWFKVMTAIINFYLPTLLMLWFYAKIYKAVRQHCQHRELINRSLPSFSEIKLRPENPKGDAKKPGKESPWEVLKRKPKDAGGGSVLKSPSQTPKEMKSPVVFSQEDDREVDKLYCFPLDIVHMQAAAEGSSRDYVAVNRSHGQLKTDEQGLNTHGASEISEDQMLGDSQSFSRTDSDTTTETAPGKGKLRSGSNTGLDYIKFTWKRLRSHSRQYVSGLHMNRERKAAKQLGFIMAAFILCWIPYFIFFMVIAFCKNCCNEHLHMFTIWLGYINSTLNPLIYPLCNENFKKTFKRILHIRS

[5] = target: Histamine H2 receptor (Homo sapiens) (UniProt P25021); assay: Inhibition of histamine H2 receptor at 3 uM
Histamine H2 receptor (Homo sapiens), sequence (P25021 whole entry): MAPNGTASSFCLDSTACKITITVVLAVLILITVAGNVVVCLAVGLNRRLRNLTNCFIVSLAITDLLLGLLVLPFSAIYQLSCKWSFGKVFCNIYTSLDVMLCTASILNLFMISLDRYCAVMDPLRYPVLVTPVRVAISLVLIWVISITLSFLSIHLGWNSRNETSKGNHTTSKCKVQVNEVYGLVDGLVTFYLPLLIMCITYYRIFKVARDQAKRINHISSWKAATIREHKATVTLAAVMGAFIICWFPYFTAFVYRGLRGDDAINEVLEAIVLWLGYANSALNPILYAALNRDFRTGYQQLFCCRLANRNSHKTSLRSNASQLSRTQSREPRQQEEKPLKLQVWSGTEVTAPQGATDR

[6] = target: Histamine H4 receptor (Homo sapiens) (UniProt Q9H3N8); assay: Inhibition of histamine H4 receptor at 3 uM

T1 sequence (Q9Y5N1 whole entry): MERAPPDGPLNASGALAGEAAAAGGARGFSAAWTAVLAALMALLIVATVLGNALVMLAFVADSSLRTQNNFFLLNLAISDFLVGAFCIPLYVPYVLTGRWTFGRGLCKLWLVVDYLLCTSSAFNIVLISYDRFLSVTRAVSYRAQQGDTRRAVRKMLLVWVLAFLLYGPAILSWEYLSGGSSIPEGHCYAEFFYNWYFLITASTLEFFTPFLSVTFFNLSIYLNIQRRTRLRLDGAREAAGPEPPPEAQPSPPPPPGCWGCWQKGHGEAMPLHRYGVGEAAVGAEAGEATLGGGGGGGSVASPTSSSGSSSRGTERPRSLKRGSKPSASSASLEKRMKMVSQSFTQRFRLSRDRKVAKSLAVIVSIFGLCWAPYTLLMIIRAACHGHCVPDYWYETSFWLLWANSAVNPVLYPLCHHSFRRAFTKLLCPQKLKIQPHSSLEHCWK

Compound	inhibition (Histamine H3 receptor [1]) [%]	pKi (Histamine H3 receptor [2])	further results
c1ccc2c(Nc3ccc(OCCCN4CCCCC4)cc3)ccnc2c1	–	9.30	–
CC(C)N1CCC(Oc2ccc3c(C(=O)NC4CCCCC4)cccc3c2)CC1	52	–	–
O=C(c1ccc2cc(OCCCN3CCCCC3)ccc2c1)N1CCCC1	–	8.40	–
C[C@H]1CC[C@H](C)N1CCCOc1ccc(-c2ccc(C(=O)N3CCOCC3)cc2)cc1 (single isomer, unassigned) [A-349,821]	–	7.92	–
O=C(c1cccc2cc(OCCCN3CCCCC3)ccc12)N1CCCC1	58	–	–

Second part, led by results:

inhibition (Histamine H3 receptor [1]) [%]	pKi (Histamine H3 receptor [2])	Compound	further results
45	–	CC(C)N1CCC(Nc2ccc3cc(C(=O)N4CCCC4)ccc3c2)CC1	–
57	–	CC(C)N1CCC(Nc2ccc3cc(C(=O)NC4CCCCC4)ccc3c2)CC1	–
–	7.24	CC(C)N1CCC(Oc2ccc3cc(C(=O)N4CCCC4)ccc3c2)CC1	–
–	7.06	CC(C)N1CCC(Oc2ccc3cc(C(=O)NC4CCCCC4)ccc3c2)CC1	pEC50 (Histamine H3 receptor [3]): 7.68; inhibition [4]: < 25%; inhibition [5]: < 25%; inhibition [6]: < 25%
61	–	CC(C)N1CCC(Nc2ccc3cc(C(=O)N4CCOCC4)ccc3c2)CC1	–
53	–	CC(C)N1CCC(Oc2ccc3c(C(=O)N4CCCC4)cccc3c2)CC1	–
